In patent publication US20240041042A1, “1-(PYRIDYL)-5-AZINYLPYRAZOLE DERIVATIVES, AND THEIR USE FOR CONTROL OF UNDESIRED PLANT GROWTH” (Bayer Aktiengesellschaft, priority 2020, published 2024):

Assays:
Assay type in all cases: in vivo
[1] = system: Alopecurus myosuroides (ALOMY); assay: Post-emergence herbicidal action against ALOMY; settings: visual rating about 3 weeks after treatment vs untreated controls (100% = plants have died, 0% = like control plants)
Summary of the method: (§1)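 Values are percent visual activity (0% like control, 100% plants dead) after about 3 weeks in the greenhouse. Treatment: post-emergence spray at one-leaf stage, 600 l/ha spray volume, 0.5% additive, doses 320 g/ha or lower.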

Viola tricolor (VIOTR) = assay: Post-emergence herbicidal action against VIOTR
Summary of the method: as §1

[2] = system: Verconica persica (VERPE); assay: Post-emergence herbicidal action against VERPE
Summary of the method: as §1

[3] = system: Echinochloa crus-galli (ECHCG); assay: Post-emergence herbicidal action against ECHCG
Summary of the method: as §1

[4] = system: Matricaria inodora (MATIN); assay: Pre-emergence herbicidal action against MATIN
Summary of the method: (§2)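 Dosages of 320 g/ha or less; pre-emergence; WP or EC in aqueous spray, 0.5% additive, 600 l/ha; greenhouse; visual % effect after ~3 wk relative to control pots.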

Setaria viridis (SETVI) = assay: Pre-emergence herbicidal action against SETVI
Summary of the method: as §2

[5] = system: Echinochloa crus-galli (ECHCG); assay: Pre-emergence herbicidal action against ECHCG
Summary of the method: as §2

[6] = system: Amaranthus retroflexus (AMARE); assay: Pre-emergence herbicidal action against AMARE; settings: visual scoring after about 3 weeks vs untreated controls
Summary of the method: as §2

[7] = system: Pharbitis purpurea (PHBPU); assay: Post-emergence herbicidal action against PHBPU
Summary of the method: as §1

[8] = system: Amaranthus retroflexus (AMARE); assay: Post-emergence herbicidal action against AMARE; settings: 320 g/ha, visual rating about 3 weeks after treatment
Summary of the method: as §1

SMILES | Post-emergence action against ALOMY in % ([1]; 80 g/ha) [%] | Post-emergence action against ALOMY in % ([1]; 320 g/ha) [%] | Post-emergence action against VIOTR in % (Viola tricolor (VIOTR); 320 g/ha) [%] | Post-emergence action against VERPE in % ([2]; 320 g/ha, VERPE) [%] | Post-emergence action against ECHCG in % ([3]; dosage 320 g/ha) [%] | Pre-emergence action against MATIN in % ([4]; dosage 80 g/ha) [%] | Pre-emergence action against MATIN in % ([4]; dosage 320 g/ha) [%] | Pre-emergence action against SETVI in % (Setaria viridis (SETVI); dosage 80 g/ha) [%] | Pre-emergence action against SETVI in % (Setaria viridis (SETVI); dosage 320 g/ha) [%] | Pre-emergence action against ECHCG in % ([5]; dosage 80 g/ha) [%] | Pre-emergence action against ECHCG in % ([5]; dosage 320 g/ha) [%] | Pre-emergence action against AMARE in % ([6]; 80 g/ha) [%] | Pre-emergence action against AMARE in % ([6]; 320 g/ha) [%] | Post-emergence action against PHBPU in % ([7]; dosage 80 g/ha) [%] | Post-emergence action against PHBPU in % ([7]; dosage 320 g/ha) [%] | Post-emergence action against VIOTR in % (Viola tricolor (VIOTR); 80 g/ha) [%] | Post-emergence action against VERPE in % ([2]; dosage 80 g/ha) [%] | Post-emergence action against ECHCG in % ([3]; dosage 80 g/ha) [%] | Post-emergence action against AMARE in % [8] [%]
C[C@@H](Oc1nn(-c2ncccc2F)c(-c2ccc(F)nc2)c1Br)C(=O)O [Example I-10] | 100 | 100 | 80 | 80 | 80 | 80 | 100 | 100 | 100 | 80 | 90 | 100 | 100 |  |  |  |  |  | 
O=C(O)COc1nn(-c2nc(F)ccc2F)c(-c2cncc(F)c2)c1C1CC1 [Example I-148] | 80 | 90 | 80 | 80 | 80 | 90 | 90 | 90 | 100 | 90 | 100 | 100 | 100 | 80 | 90 | 80 | 80 | 80 | 
O=C(O)COc1nn(-c2ncccc2F)c(-c2ccc(F)nc2)c1Br [Example I-17] | 90 | 90 | 80 | 80 | 80 | 90 | 100 | 100 | 100 | 90 | 90 | 100 | 100 |  | 80 | 80 |  | 80 | 
CCOC(=O)COc1nn(-c2nc(F)ccc2F)c(-c2cncc(F)c2)c1C1CC1 [Example I-149] | 80 | 90 | 80 | 80 | 80 | 90 | 90 | 100 | 100 | 90 | 100 | 90 | 100 | 80 | 80 | 80 |  | 80 | 
COC(=O)COc1nn(-c2nc(F)ccc2F)c(-c2cncc(F)c2)c1C1CC1 [Example I-164] | 100 | 100 | 80 | 80 | 80 | 90 | 100 | 100 | 100 | 90 | 100 | 100 | 100 | 80 | 90 |  | 80 | 80 | 
COC(=O)CNC(=O)[C@@H](C)Oc1nn(-c2ccccn2)c(-c2cncc(F)c2)c1Br [Example I-187] |  | 90 | 90 | 90 | 80 | 90 | 90 | 100 | 100 | 90 | 100 | 80 | 100 |  | 80 | 80 | 90 | 80 | 
COC(=O)C(C)NC(=O)[C@@H](C)Oc1nn(-c2ccccn2)c(-c2cncc(F)c2)c1Br (stereo partly drawn) [Example I-190] | 80 | 100 | 90 | 90 | 80 | 90 | 90 | 90 | 100 | 90 | 100 | 90 | 100 |  |  | 80 | 80 | 80 | 80
COC(=O)[C@@H](C)Oc1nn(-c2ccccn2)c(-c2cncc(F)c2)c1Cl [Example I-189] | 80 | 90 | 90 | 90 | 90 | 90 | 100 | 100 | 100 | 90 | 100 | 100 | 100 | 90 | 90 | 90 | 90 | 90 | 
